Experimental data published in paper PMC12668308, “A Novel Antimalarial Agent that Inhibits Protein Synthesis in Plasmodium falciparum” (Angewandte Chemie (International Ed. in English), 2025).

What was measured:
[1] = system: cytosolic ribosomal subunits; experiment: iSPP assay, P. falciparum lysate; format: binding, Plasmodium falciparum; conditions: lysate incubated with 100 µM; 104 stabilized proteins in total for 31
Excerpt: To further elucidate the MoA of 31, an integral solvent‐induced protein precipitation (iSPP) assay was employed as recently described.^[ [26] ^] iSPP utilizes a solvent mixture (acetone/ethanol/acetic acid) to induce protein denaturation, allowing the detection of drug‐protein interactions by quantitative mass spectrometry based on changes in protein stability due to compound binding using cellular lysates from in vitro blood‐stage P. falciparum parasites.
P. falciparum NF54 lysates were extracted as described in ^[26^] . The parasite asynchronous culture was extracted once 3-5% parasitemia was reached. Saponin lysis was done as described in 2.2.10. […] The soluble protein fraction (supernatant) was collected and the protein content was quantified using the BCA assay (Pierce™ BCA Protein Assay Kit, Thermo Fisher Scientific). […]
The raw LFQ-DIA intensity values of biological replicates across all conditions were normalized to the median abundance using Excel. […] Dose-dependent curves were generated using normalized protein intensity values, expressed as a ratio to the vehicle control. […]

[2] = system: Uncharacterized protein (W7JXH4); experiment: iSPP profiling, P. falciparum lysate; format: binding, Plasmodium falciparum
Description: P. falciparum NF54 lysates were extracted as described in ^[26^] . The parasite asynchronous culture was extracted once 3-5% parasitemia was reached. Saponin lysis was done as described in 2.2.10. Once the parasite pellet was obtained, 2.5 volumes of ice-cold lysis buffer (50 mM Tris/HCl pH 7.5 (Avantor), 5% glycerol (Sigma-Aldrich), 150 mM NaCl (Carl Roth), 1.5 mM MgCl2 (Sigma-Aldrich), 1 mM DTT (Carl Roth), 0.8% IGEPAL CA-630 (Sigma-Aldrich), 1X Halt Protease and Phosphatase Inhibitor-Cocktails EDTA-free (Thermo Fisher Scientific)) was added to the parasite pellet. The lysate solution was subjected to three cycles of flash freeze-thaw with liquid nitrogen and ddH2O at RT. The lysates were centrifuged at 20,000 g for 20 minutes at 4 °C. The soluble protein fraction (supernatant) was collected and the protein content was quantified using the BCA assay (Pierce™ BCA Protein Assay Kit, Thermo Fisher Scientific). The lysate was stored at -80 °C until further use.
The P. falciparum lysate was thawed on ice and diluted to 0.8 mg/mL. […] Subsequently, the samples were incubated at room temperature for 30 minutes using a rotating mixer. After distribution into a 96-well plate, the samples were treated with increasing concentrations of A.E.A. (v/v) ranging from 14% to 28% (14, 16, 18, 20, 22, 24, 26, and 28%). Following a 20-minute incubation at 37°C with shaking at 750 rpm, the samples were centrifuged at 4400 g for 35 minutes to remove precipitated proteins. The soluble fractions were then pooled in equal volumes into a single sample using the Bravo Automated Liquid Handling Platform. The pooled samples were subsequently prepared for LC-MS/MS analysis.
The raw LFQ-DIA intensity values of biological replicates across all conditions were normalized to the median abundance using Excel. The normalized values were then log2 transformed in Perseus (v2.0.10.0).^[58^] Missing values were imputed from a normal distribution (width 0.3, down shift 1.5), and p-values were obtained using a two-sample t-test over replicates with a permutation-based false discovery rate correction (FDR 0.05). Volcano plots were generated in RStudio using the EnhancedVolcano package (v. 1.20.0), ^[59^] plotting proteins by statistical significance (y-axis: –Log10 p-value) versus the magnitude of change (x-axis: log2 fold change of protein intensities for each compound condition relative to the vehicle control). The heatmap was generated in Perseus (v2.0.10.0). Dose-dependent curves were generated using normalized protein intensity values, expressed as a ratio to the vehicle control. Plots were created in GraphPad Prism (v8.3.0) using a nonlinear regression model.

SMILES | significantly stabilized proteins belonging to cytosolic ribosomal subunits [1] | log2FC ([2]; 10 µM) | log2FC ([2]; 50 µM) | log2FC ([2]; 100 µM compound 31) | log2FC ([2]; 10^-2 µM) | log2FC ([2]; 10^-3 µM) | log2FC ([2]; 100 µM compound 34)
CN1CCN(Cc2ccc(O)c(NC(=O)c3cccc(Oc4cc(C(F)(F)F)ccn4)c3)c2)CC1 [Compound 31, N-(2-hydroxy-5-((4-methylpiperazin-1-yl)methyl)phenyl)-3-((4-(trifluoromethyl)pyridin-2-yl)oxy)benzamide] | 12 | 1.06 | 0.61 | 0.70 | 0.54 | 0.61 | 
O=C(Nc1cc(CN2CCOCC2)ccc1F)c1cccc(Oc2cc(C(F)(F)F)ccn2)c1 [Compound 34, N-(2-Fluoro-5-(morpholinomethyl)phenyl)-3-((4-(trifluoromethyl)pyridin-2-yl)oxy)benzamide] | failed to stabilize any cytosolic ribosomal proteins |  |  |  |  |  | 0.3904
